Consider 17 molecules from EP2769723A1, “Compounds for use in inhibiting HIV capsid assembly” (priority 2013, dated 2014).

Where two headings read alike, the source gives them in different places. Some results are limits rather than exact numbers.

The nature of data set [1]: Solubility observations (DMSO, ITC buffer). Format: physicochemical.
Another data set concerns the target T1, CA (Human immunodeficiency virus type 1 group M subtype B, UniProt P12493).
T1 construct: a fusion protein of CA with glutathione-S-transferase (CA-GST)
As to the kind of experiment: ALPHA screen (AlphaScreen): inhibition of CAI binding to CA. Set-up: species or system HIV-1. How it is done: The AlphaScreen experiments are performed using Perkin Elmer Enspire plate reader in white 96-well ProxiPlates and PBS supplemented with 0.05% Tween20, 2mM DTT, 2% DMSO. First, Streptavidin-coated Donor beads are used to capture the CAI-biotin peptide. In the other solution, a fusion protein of CA with glutathione-S-transferase (CA-GST) is mixed with GSH Acceptor beads. Both mixtures were incubated and then mixed together. To test the ability of prepared organic compounds to inhibit the CAI binding to CA, they are screened at concentrations between 0.5-100 µM and IC50 values are calculated from the influenced signals.
Upon illumination by laser at 680 nm, Donor beads containing the photosensitizer phthalocyanine convert ambient oxygen to an excited form of singlet oxygen ^1O2. Singlet oxygen can within its half-life of ~ 4 µs diffuse approximately 200 nm in solution. If an Acceptor bead is within that proximity, which is mostly upon CA:CAI interaction, energy is transferred from the singlet oxygen to thioxene derivates within the Acceptor and signal at 520 - 620 nm is emitted.
A general note: In Alpha technology, singlet oxygen from a donor bead excites a nearby acceptor bead.

A further data set concerns wild type NL4.3 HIV-1. As to the kind of experiment: Tissue culture infectivity test, TZM titration of supernatants from infected TZM cells. The class given is cell-based. Conditions: Human immunodeficiency virus 1, TZM. How it is done: Hits selected in the YFP-screen were further evaluated in the tissue culture experiments with cells infected with the wild type NL4.3 HIV-1. The virus for infection was obtained from co-culture of MT4 cells. The MT4 cells co-culture was synchronized for one week and then used for the infection of fresh MT 4 cells. 48 hrs post-infection was the culture supernatant harvested, cleared by the filtration through […] filter and stored in -80 °C in 1 ml aliquots. Amount of virus was quantified by enzyme-linked immuno sorbent assay (ELISA) with antibodies against HIV-1 CA (3 ng of CA/ml) and blue cell assay (1x10^5 IU/ml), which gives 3 x 10^4 IU/ng of CA.
For compounds testing the TZM cells were seeded on 96-well plate in the density 5 x 10^3 cells per well. The culture media was aspirated approx. 16 hrs later and cells were infected by the wild type NLA.3 HIV-1 by addition of 50J..il of prepared virus stock diluted with 50 µl of complete DMEM. The compounds were added twice to ensure that there are not any preassembled viruses present at the time of their addition. Compounds were first added 8 hrs post-infection and then 24 hrs later. In both cases the old culture media were replaced by 100 µl of fresh complete DMEM prior to the compounds addition. Different compounds concentrations were tested, but the DMSO concentration never exceeded 1 % DMSO. As controls were used cells treated only with 1 % DMSO and cells treated with 0,1 µM Lopinavir (HIV-1 protease inhibitor). Supernatant was harvested 24 hrs after the second compound addition, i.e. 56 hrs post-infection. Harvested supernatants were immediately titrated on the fresh TZM cells in aim to perform the infectivity assay (TZM titration), or inactivated by addition of Triton X-100 to the final concentration 0.025 % for further ELISA analysis.
TZM titration was performed on the cells seeded day before on 96-well plate in the density 5 x 10^3 cells per well. The analysis was performed for each compound concentration at three different dilutions and in duplicates. The culture media was aspired and cells were lysed 48 hrs post-infection by addition of 100 µl of SteadyGlo luciferase substrate (Promega) diluted 1 : 1 by complete DMEM. The luminescence signal was measured on Luminoskan Ascent (Thermo Labsystems) after the transfer of 80 µl of lysate to the flat bottom white polystyrene assay plates (Costar).

A short description of a further data set: in vitro. Conditions: human. Format: cell-based. How it is done:
(§1) Cytotoxicity of selected hits tested in the assay with NL4.3 infected cells was determined by MTT test. TZM cells were seeded on the previous day on 96-well plate in the density 5 x 10^3 cells per well. The tested compounds were added in different concentrations, but the DMSO concentration never exceeded 1 % DMSO. As controls were used cells treated only with 1 % DMSO (non-toxic concentration) and cells treated with 5 % DMSO (toxic concentration). 20 µl of the CellTiter 96 Aqueous One substrate (Promega) was added to the 100 µl of culture media 48 hrs after the compounds addition and the color development was quantified 4 hrs later by measuring the absorbance at 490 nm on Saphire reader. Compounds were consider non-cytotoxic (at given concentrations) when the measured values were higher than 80 % of the value of 1 % DMSO treated cells.

A further data set has as its system TZM cells. Put plainly: in vitro. The class given is cell-based. Conditions: Table 4; non-cytotoxic when values higher than 80 % of 1 % DMSO treated cells. How it is done: as §1
Another data set deals with HIV capsid protein (Human immunodeficiency virus type 1 group M subtype B, UniProt P12493). As to the kind of experiment: Isothermal titration calorimetry (ITC), whole capsid protein. The class given is binding. The following applies: dissociation constant. How it is done: (§2) The binding of CA ligand AMR-346 to the HIV capsid protein and its C-terminal part was monitared using a VP-ITC microcalorimeter (MicroCal Inc., Northampton, USA) at 25 °C. The solutions of reactants were prepared in 30 mM MES, pH 6.0 containing 10 % glycerol, 2 mM 2-mercaptoethanol, 2 % DMSO, and the exact concentrations of proteins were determined by amino acid analysis. […] The isothermal titration was used to estimate the ligand concentration and the binding parameters were calculated for situation when single AMR-346 molecule binds to monomer or dimer of protein, respectively. Typically, 9 µl aliquots of AMR-346 were injected stepwise into the sample cell containing 1.43 ml of 7 µM protein until saturation was achieved. The experiment was accompanied by a corresponding control experiment in which AMR-346 was injected into buffer alone. The association constants were determined by software developed by MicroCal.
The CA ligand AMR-346 binds to monomer of HIV capsid protein or its C-terminal part with dissociation constants of 230 nM or 50 nM, respectively. For the binding mode of single molecule AMR-346 toward dimeric capsid protein and its C-terminal part, the dissociation constants were estimated to be 120 nM and 26 nM, respectively. Table 4: Synthesized and tested compounds

In data set [2] the target is HIV capsid protein C-terminal part (Human immunodeficiency virus type 1 group M subtype B, UniProt P12493). Put plainly: Isothermal titration calorimetry (ITC), C-terminal part. Format: binding. Conditions: dissociation constant. How it is done: Upper graph: raw experimental data. Lower graph: Fit (line) to the integrated heats (full circles) from each injection, corrected for the heat of dilution of CA ligand AMR-346.
as §2
The CA ligand AMR-346 binds to monomer of HIV capsid protein or its C-terminal part with dissociation constants of 230 nM or 50 nM, respectively. […]
A general note: ITC needs no label: the signal is the heat of the interaction.

The mark [3] stands for this setting: CAI-biotin peptide / CA-GST, compounds screened at 0.5-100 µM, read-out: α screen IC50.
[4] abbreviates: read-out: tissue culture IC50 (µM).
Setting [5] is: Table 4, non-cytotoxic when values higher than 80 % of 1 % DMSO treated cells, read-out: toxicity LC50.
The mark [6] stands for this setting: Table 5, MTT cytotoxicity test, read-out: CC50.

Regarding `Cl.O=C(O)c1cc(O)ccc1Nc1nc(-c2cccnc2)nc2ccccc12` [5-hydroxy-2-(2-(pyridin-3-yl)quinazolin-4-ylamino)benzoic acid hydrochloride], the “solubility in DMSO” value in data set [1] is “insolubility in DMSO”.
For the molecule `c1cncc(-c2nc(Nc3ccc4[nH]nnc4c3)c3ccccc3n2)c1` [AMR.325], the IC50 (as a rule, the concentration that inhibits the measured activity by half) on CA (setting [3]) is over 200 µM; in the data set with wild type NL4.3 HIV-1, 6.9 µM. The CC50 at 48 h in the data set “in vitro” (tzm cells, Table 5, MTT cytotoxicity test, read-out: CC50) is 200 µM.
As to `CCOC(=O)c1ccc(Nc2nc(-c3ccncc3)nc3ccccc23)cc1` [AMR.346], the IC50 was 7.2 µM at CA and about 15 µM in the data set on wild type NL4.3 HIV-1 (setting [4]). Also, the “toxicity LC50 (µM)” value with TZM cells is recorded as “non-toxic”. For the same molecule, the Kd (usually the concentration at which binding is half-saturated) is 0.23 µM at HIV capsid protein (one ligand binds to monomer of HIV capsid protein, 25 °C, pH 6.0); 0.12 µM on HIV capsid protein (single molecule binds to dimeric capsid protein, estimated); 0.05 µM in data set [2] (one ligand binds to monomer of C-terminal part, 25 °C, pH 6.0); 0.026 µM in data set [2] (single molecule binds to dimeric C-terminal part, estimated). Further, the solubility entry in data set [1] (30 mM MES, pH 6.0, 10 % glycerol, 2 % DMSO, concentration required for ITC) is recorded as “low solubility”.
As to `CNc1ccc([N+](=O)[O-])cc1Nc1nc(-c2cccnc2)nc2ccccc12` [AMR.494], the IC50 came out at 0.9 µM on CA (setting [3]) and 1.8 µM in the data set with wild type NL4.3 HIV-1. Further, the values for the CC50 at 48 h in “in vitro” (setting [5]) and in the data set “in vitro” (setting [6]) were about 15 µM and 16.1 µM, respectively.
For the molecule `O=[N+]([O-])c1ccc(Nc2nc(-c3cccnc3)nc3ccccc23)c(I)c1` [KP-108], the IC50 in the data set with wild type NL4.3 HIV-1 (setting [4]) is about 1.5 µM. In addition, the CC50 at 48 h in the data set “in vitro” (setting [5]) was about 20 µM.
For the molecule `OCc1ccc(Nc2nc(-c3cccnc3)nc3ccccc23)cc1` [KP-236], the IC50 with wild type NL4.3 HIV-1 (setting [4]) is about 10 µM. Further, the CC50 at 48 h in the data set “in vitro” (setting [5]) was about 10 µM.
For the molecule `Clc1cc(Nc2nc(-c3cccnc3)nc3ccccc23)cc(Cl)c1Cl` [KP-253], the “solubility in DMSO” value in data set [1] was “insoluble in DMSO”.
`CNc1ccc([N+](=O)[O-])cc1Nc1nc(-c2ccc(C(=O)c3ccccc3)cc2)nc2ccccc12` [OSR-77]: the results for the IC50 in the data set with wild type NL4.3 HIV-1 and in the data set on wild type NL4.3 HIV-1 (setting [4]) were 2 µM and about 3 µM, respectively. Moreover, the CC50 at 48 h was about 7 µM in the data set “in vitro” (setting [5]) and 7.1 µM in the data set “in vitro” (setting [6]).
Turning to `NC(=O)c1c(F)cccc1Nc1nc(-c2ccccn2)nc2ccccc12` [OSR-85], the IC50 with wild type NL4.3 HIV-1 is 6.5 µM; in the data set with wild type NL4.3 HIV-1 (setting [4]), about 8 µM. Besides, the CC50 at 48 h in “in vitro” (setting [6]) came out at 125 µM. The “toxicity LC50 (µM)” value in the data set with TZM cells is listed as “non toxic”.
Regarding `O=[N+]([O-])c1ccc(F)c(Nc2nc(-c3cccnc3)nc3cc(C(F)(F)F)ccc23)c1` [OSR-178], the IC50 was 1.5 µM with wild type NL4.3 HIV-1 and about 5 µM with wild type NL4.3 HIV-1 (setting [4]). Also, the CC50 at 48 h in “in vitro” (setting [5]) was about 11 µM; in “in vitro” (setting [6]) it was 5 µM.
With `Fc1cc(Nc2nc(-c3cccnc3)nc3ccccc23)cc(F)c1F` [OSR-199], the IC50 in the data set on wild type NL4.3 HIV-1 was 5.1 µM; in the data set on wild type NL4.3 HIV-1 (setting [4]), about 5 µM. Moreover, the CC50 at 48 h in the data set “in vitro” (setting [6]) worked out at 100 µM. In addition, the “toxicity LC50 (µM)” value in the data set on TZM cells is “non-toxic”.
Consider `FC(F)(F)c1cccc(Nc2nc(-c3cccnc3)nc3cc(C(F)(F)F)ccc23)c1` [OSR-201], for which the values for the IC50 in the data set on wild type NL4.3 HIV-1 and with wild type NL4.3 HIV-1 (setting [4]) were 8.5 µM and about 8 µM, respectively. Moreover, the CC50 at 48 h in the data set “in vitro” (setting [6]) is 25 µM. Besides, in the data set on TZM cells, the “toxicity LC50 (µM)” value is recorded as “non-toxic”.
Take `c1cncc(-c2nc(SCCSc3nc(-c4cccnc4)nc4ccccc34)c3ccccc3n2)c1` [OSR-291]: in data set [1], the “solubility in DMSO” value is “insoluble in DMSO”.
Consider `CC(C)Nc1nc(-c2cccnc2)nc2ccccc12` [OSR-295], for which the IC50 in the data set with wild type NL4.3 HIV-1 (setting [4]) is over 10 µM. In addition, in the data set with TZM cells, the “toxicity LC50 (µM)” value is recorded as “non-toxic”.
For `Fc1ccc(Nc2nc(-c3cccnc3)nc3ccccc23)c(F)c1F` [OSR-298], the IC50 in the data set on wild type NL4.3 HIV-1 (setting [4]) is over 10 µM. The “toxicity LC50 (µM)” value in the data set on TZM cells is “non-toxic”.
`Fc1cc(F)c(Nc2nc(-c3cccnc3)nc3ccccc23)cc1F` [OSR-299]: the IC50 in the data set with wild type NL4.3 HIV-1 (setting [4]) was about 10 µM. Moreover, the “toxicity LC50 (µM)” value in the data set with TZM cells was “non-toxic”.
For `CN(C)c1nc(-c2cccnc2)nc2ccc(OS(C)(=O)=O)cc12` [OSR-302], the CC50 at 48 h in the data set “in vitro” (setting [5]) was about 7 µM.
